How the values were obtained:
[1] = system: airway resistance caused by LTD4 (leukotriene D4); settings: guinea pigs; cited from earlier work
[2] = in vivo; cited from earlier work
[3] = system: histamine induced lethality; settings: guinea pig; cited from earlier work
[4] = cited from earlier work
allergic rhinitis = settings: compared with chlorpheniramine; cited from earlier work
histamine H1 -receptor = histamine H1 -receptor (Bos taurus, UniProt P30546); experiment: biochemical; settings: pH 7.5, read-out: Percent Inhibition
Chain of histamine H1 -receptor (P30546 whole entry): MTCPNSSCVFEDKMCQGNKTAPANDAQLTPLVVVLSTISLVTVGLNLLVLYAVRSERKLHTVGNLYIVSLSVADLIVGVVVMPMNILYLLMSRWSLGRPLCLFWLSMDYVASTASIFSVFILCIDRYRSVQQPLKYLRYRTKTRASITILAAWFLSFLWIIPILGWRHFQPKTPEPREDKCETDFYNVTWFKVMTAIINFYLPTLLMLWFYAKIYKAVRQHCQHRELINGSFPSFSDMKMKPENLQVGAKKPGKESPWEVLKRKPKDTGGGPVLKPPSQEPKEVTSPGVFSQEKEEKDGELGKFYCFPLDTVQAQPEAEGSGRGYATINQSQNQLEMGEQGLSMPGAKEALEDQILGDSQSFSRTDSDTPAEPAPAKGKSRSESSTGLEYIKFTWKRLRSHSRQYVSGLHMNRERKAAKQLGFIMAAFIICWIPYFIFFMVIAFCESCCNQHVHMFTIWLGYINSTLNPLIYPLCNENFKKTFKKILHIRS
Procedure: 32:1653-1663 (1979). Briefly, membranes from bovine cerebellum were incubated with [^3 H]pyrilamine and varying concentrations of test compound. The reactions were carried out in 50 mM sodium phosphate buffer (pH 7.5) at 25° C. for 30 minutes. The reaction was terminated by rapid vacuum filtration onto glass fiber filters. Radioactivity trapped on the filters was determined and compared to control values to acertain the interaction of the test compound with the H1 -receptor.

Row | SMILES | increase in airway resistance caused by LTD4 [1] | absorption [2] | metabolism [2] | protection against histamine induced lethality [3] | adverse effects: cardiac arrhythmias ([4]; administration to a human) | occurrence of cardiac arrhythmias ([4]; coadministration with other drugs such as ketoconazole and erythromycin or upon overdose) | sedation, gastrointestinal distress, dry mouth, and constipation or diarrhea ([4]; in vivo) | clinical efficacy in allergic rhinitis (allergic rhinitis) | inhibition at 0.001 µM (histamine H1 -receptor) [%] | inhibition at 0.1 µM (histamine H1 -receptor) [%] | inhibition at 10 µM (histamine H1 -receptor) [%]
1 | CC(C)(C)c1ccc(C(O)CCCN2CCC(C(O)(c3ccccc3)c3ccccc3)CC2)cc1 (racemic) [Terfenadine] | suppressed | well absorbed | extensively metabolized | protects against histamine induced lethality in the guinea pig | cardiac arrhythmias, including ventricular tachyarrhythmias, torsades de pointes, and ventricular fibrillation | an increase in the occurrence of these cardiac arrhythmias | relatively less sedation, gastrointestinal distress, dry mouth, and constipation or diarrhea | slightly less effective than chlorpheniramine | – | – | –
2 | CC(C)(C(=O)O)c1ccc([C@H](O)CCCN2CCC(C(O)(c3ccccc3)c3ccccc3)CC2)cc1 [R-(+)-terfenadine carboxylate] | – | – | – | – | – | – | – | – | 12.4 | 45.2 | 87.3
3 | CC(C)(C(=O)O)c1ccc([C@@H](O)CCCN2CCC(C(O)(c3ccccc3)c3ccccc3)CC2)cc1 [S-(-)-terfenadine carboxylate] | – | – | – | – | – | – | – | – | 8.1 | 54.1 | 88.7

From US5375693A (Sepracor, Inc., priority 1994, dated 1994)
